Laboratory results taken from paper PMC5107896 (Scientific Reports, 2016).
Each block holds one compound with its values, some of them ahead of it.

Key:
Assay type in all cases: biochemical
Factor Xa (F10) = Factor Xa (F10) (Homo sapiens, UniProt P00742); test: SensoLyte Rh110 Factor Xa Assay Kit (enzyme inhibition)
[1] = target: T1, Prostaglandin G/H synthase 2 (PTGS2/COX2) (Ovis aries, UniProt P79208); test: Colorimetric COX (ovine) inhibitor screening assay kit (Cayman)
T1 sequence (P79208 17-603): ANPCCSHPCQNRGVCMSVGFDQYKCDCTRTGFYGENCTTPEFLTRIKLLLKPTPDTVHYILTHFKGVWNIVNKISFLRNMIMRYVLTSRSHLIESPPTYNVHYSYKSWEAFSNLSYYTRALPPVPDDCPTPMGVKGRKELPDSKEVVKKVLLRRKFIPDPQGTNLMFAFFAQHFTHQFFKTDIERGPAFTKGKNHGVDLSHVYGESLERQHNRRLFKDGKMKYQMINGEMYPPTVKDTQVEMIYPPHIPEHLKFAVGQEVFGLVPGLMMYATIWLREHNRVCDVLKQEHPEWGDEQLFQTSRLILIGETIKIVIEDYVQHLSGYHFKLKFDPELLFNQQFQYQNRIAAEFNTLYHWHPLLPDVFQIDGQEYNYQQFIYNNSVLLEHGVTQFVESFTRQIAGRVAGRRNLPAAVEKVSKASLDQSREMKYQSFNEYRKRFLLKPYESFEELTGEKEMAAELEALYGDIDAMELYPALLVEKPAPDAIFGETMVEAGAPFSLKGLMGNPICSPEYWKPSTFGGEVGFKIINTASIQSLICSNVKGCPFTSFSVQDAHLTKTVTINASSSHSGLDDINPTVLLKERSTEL

[2] = target: T2, Monoamine oxidase A (MAOA) (Homo sapiens, UniProt P21397); test: in vitro MAOA inhibition assay (enzyme purchased)
T2 sequence (P21397 1-527): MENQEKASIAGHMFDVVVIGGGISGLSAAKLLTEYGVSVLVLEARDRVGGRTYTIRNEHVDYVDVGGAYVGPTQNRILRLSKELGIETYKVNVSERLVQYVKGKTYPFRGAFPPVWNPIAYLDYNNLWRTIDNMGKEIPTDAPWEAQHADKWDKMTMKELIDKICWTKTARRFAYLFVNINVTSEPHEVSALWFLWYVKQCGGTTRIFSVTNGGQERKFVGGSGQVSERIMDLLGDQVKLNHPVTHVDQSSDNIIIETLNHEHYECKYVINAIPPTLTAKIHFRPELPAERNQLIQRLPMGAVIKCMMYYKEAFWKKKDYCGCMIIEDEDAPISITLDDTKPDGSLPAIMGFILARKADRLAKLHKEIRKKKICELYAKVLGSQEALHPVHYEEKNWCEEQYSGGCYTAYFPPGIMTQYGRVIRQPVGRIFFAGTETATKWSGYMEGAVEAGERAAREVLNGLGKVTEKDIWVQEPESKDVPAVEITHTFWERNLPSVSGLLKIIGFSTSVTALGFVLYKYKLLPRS

Chain of Factor Xa (F10) (P00742 41-179): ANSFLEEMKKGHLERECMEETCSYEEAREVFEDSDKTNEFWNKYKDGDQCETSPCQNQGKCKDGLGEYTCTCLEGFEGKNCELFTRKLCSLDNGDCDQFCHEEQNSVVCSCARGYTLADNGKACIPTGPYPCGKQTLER
Chain of Factor Xa (F10) (P00742 235-488): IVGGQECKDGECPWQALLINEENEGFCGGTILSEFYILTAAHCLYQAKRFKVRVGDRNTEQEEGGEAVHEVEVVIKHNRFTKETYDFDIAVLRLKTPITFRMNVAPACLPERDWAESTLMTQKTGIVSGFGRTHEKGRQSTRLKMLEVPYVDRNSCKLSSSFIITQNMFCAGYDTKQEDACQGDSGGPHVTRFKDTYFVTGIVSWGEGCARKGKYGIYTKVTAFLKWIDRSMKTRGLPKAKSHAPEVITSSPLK

Structure (SMILES): O=C(/C=C/c1ccc(O)c(O)c1/C=C/c1ccc(O)c(O)c1)O[C@H](Cc1ccc(O)c(O)c1)C(=O)O [salvianolic acid A]
IC50 (Factor Xa (F10)): 90 nM

IC50 [1]: 37.4 µM
Structure (SMILES): O=c1c(O)c(-c2ccc(O)cc2)oc2cc(O)cc(O)c12 [kaempferol]

Structure (SMILES): O=c1cc(-c2ccc(O)c(O)c2)oc2cc(O)cc(O)c12 [luteolin]
IC50 [2]: 10 nM
